# Publication PMC7857637, “The three NADH dehydrogenases of Pseudomonas aeruginosa: Their roles in energy metabolism and links to virulence” (PLoS ONE, 2021)
# Biological target: T1, NQR complex (pHERD28C-NQR) (Pseudomonas aeruginosa, UniProt Q9HZK7+Q9HZK8)
# T1 construct: gene nqrB; complete nqr operon on pHERD28C plasmid, C-terminal His tag on NqrF, expressed in P. aeruginosa, partially purified on Ni-NTA; with Na(+)-translocating NADH-quinone reductase subunit A; Na(+)-translocating NADH-quinone reductase subunit D; Na(+)-translocating NADH-quinone reductase subunit E; Na(+)-translocating NADH-quinone reductase subunit F
# Test: in-gel flavin fluorescence of the partially purified complex (SDS gel under UV)
# Type: binding
# Conditions: covalent (retained on SDS gel); bands of subunits NqrB and NqrC
# T1 sequence (Q9HZK7 whole entry): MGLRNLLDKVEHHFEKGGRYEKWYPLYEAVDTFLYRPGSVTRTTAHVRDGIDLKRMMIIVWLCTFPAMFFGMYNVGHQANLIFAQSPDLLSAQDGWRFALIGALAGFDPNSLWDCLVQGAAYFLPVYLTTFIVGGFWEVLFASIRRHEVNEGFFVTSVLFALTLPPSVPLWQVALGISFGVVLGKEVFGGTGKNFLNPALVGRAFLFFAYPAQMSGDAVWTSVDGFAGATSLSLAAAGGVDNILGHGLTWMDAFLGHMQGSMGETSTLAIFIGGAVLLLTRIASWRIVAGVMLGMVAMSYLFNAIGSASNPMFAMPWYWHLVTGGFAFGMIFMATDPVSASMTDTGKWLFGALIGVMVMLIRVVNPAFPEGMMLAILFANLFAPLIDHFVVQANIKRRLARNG
# T1 sequence (Q9HZK8 whole entry): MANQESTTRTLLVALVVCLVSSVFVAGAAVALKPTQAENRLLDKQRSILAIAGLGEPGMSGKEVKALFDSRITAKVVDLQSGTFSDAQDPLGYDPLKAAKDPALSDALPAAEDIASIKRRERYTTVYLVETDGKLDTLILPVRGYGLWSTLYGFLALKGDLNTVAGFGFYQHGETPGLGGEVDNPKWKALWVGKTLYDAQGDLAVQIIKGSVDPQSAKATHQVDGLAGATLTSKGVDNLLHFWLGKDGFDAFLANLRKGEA
# T1 sequence (Q9HZL1 whole entry partner): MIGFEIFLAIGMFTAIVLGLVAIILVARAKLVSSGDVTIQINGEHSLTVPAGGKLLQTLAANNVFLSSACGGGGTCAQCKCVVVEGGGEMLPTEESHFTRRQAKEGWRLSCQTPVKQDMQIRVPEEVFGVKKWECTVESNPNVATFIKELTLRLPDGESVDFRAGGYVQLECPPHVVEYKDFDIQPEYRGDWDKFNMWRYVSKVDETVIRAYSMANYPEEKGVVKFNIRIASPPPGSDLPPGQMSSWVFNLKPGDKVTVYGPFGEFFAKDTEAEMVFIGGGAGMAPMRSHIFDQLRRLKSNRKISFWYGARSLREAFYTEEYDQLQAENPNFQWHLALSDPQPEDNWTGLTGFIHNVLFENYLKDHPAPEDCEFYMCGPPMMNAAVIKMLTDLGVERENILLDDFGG
# T1 sequence (Q9HZK6 whole entry partner): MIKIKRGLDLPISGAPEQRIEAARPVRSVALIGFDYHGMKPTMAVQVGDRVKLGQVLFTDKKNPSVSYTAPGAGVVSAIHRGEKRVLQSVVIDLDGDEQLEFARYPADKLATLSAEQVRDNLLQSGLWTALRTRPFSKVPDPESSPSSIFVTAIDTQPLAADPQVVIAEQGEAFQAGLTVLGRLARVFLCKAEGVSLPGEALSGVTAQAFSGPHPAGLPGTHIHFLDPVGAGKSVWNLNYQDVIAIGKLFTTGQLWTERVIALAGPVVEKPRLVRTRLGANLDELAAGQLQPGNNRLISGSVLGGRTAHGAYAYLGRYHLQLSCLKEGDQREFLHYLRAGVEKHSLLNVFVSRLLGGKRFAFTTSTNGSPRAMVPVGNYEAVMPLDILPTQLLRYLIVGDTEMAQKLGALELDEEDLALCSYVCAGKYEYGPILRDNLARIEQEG
# T1 sequence (Q9HZK9 whole entry partner): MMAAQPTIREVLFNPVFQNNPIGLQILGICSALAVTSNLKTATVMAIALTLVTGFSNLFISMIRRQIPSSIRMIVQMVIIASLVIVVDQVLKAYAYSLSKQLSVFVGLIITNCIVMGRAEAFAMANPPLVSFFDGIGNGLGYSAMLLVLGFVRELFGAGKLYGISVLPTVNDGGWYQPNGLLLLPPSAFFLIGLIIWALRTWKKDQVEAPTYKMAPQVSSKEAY
# T1 sequence (Q9HZL0 whole entry partner): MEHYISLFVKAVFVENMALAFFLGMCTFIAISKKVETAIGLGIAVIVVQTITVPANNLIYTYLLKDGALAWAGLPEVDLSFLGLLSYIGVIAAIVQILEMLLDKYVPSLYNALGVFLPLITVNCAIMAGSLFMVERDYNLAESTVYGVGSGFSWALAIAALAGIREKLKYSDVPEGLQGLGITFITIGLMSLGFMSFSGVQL
smiles,measurement,value
Cc1cc2nc3c(=O)[nH]c(=O)nc-3n(C[C@H](O)[C@H](O)[C@H](O)COP(=O)(O)O)c2cc1C [FMN],in-gel flavin fluorescence of the partially purified complex (SDS gel under UV),two fluorescent bands characteristic of the FMN cofactors of the NqrB and NqrC subunits
